Data: patent US12391657B2, “Small molecules that bind and/or modulate differentforms of tau oligomers” (The Board of Regents of the University of Texas System, priority 2019, dated 2025)
“Also recorded” adds a separate entry of the source.

Legend:
[1] = target: T1, recombinant tau oligomers (TauO) (Homo sapiens, UniProt P10636); assay: Atomic force microscopy of recombinant tau oligomers after compound treatment; settings: 5 μM of curcumin derivatives
T1 construct: made in house
Procedure: (§1) Tau oligomers were characterized by AFM as previously described (Lasagna-Reeves, (2010)0. Briefly, samples were prepared by adding 10 μl tau oligomers in the absence and presence of AC on freshly-cleaved mica and were allowed to adsorb to the surface. Mica were then washed three times with distilled water to remove unbound protein and impurities followed by air-drying. Samples were then imaged with Multimode 8 AFM machine (Veeco, CA) using a non-contact tapping method (ScanAsyst-Air).
(§2) Compounds were dissolved in ETOH 75%/DMSO (5:1) at a final concentration of 5 mM and diluted in 1× PBS or ddH2O for incubation or toxicity assay (final concentration 5 μM). Tau oligomers in the presence of the small molecules and controls were incubated on an orbital shaker, without stirring, for 16 hours under oligomerization conditions as previously described (Lo Cascio and Kayed 2018).
as §1, with “(Lasagna-Reeves, Castillo-Carranza et al. 2010).” for “(Lasagna-Reeves, (2010)0.”, “absence or” for “absence and”

primary cortical neurons [2] = assay: MTT viability of primary cortical neurons exposed to TauO pre-incubated with compound; format: cell-based, Htau mice; settings: 0.5 μM tau oligomers, 5 μM curcumin derivatives, 2 hours
Procedure: as §2
(§3) Human neuroblastoma SH-SY5Y cells were maintained in Dulbecco's modified Eagle's medium (DMEM) and grown to confluence in 96-well plates. […] Cells viability was corrected by the vehicle background. All measurements were performed in triplicate. The cytotoxic effect was determined using 3-(4,5-dimethylthiazol-2-yl)-2,5-diphenyltetrazolium bromide (MTT) assay for assessing cell viability following manufacturer's instructions. Optical density (OD) was measured at 490 nm with POLARstar OMEGA plate reader (BMG Labtechnologies). Cell viability was calculated as the percentage of the OD value of treated cells compared with untreated controls, according to the following equation: Viability=(OD SAMPLE/OD CONTROL)×100. Statistical analysis was based on one-way analysis of variance (ANOVA), performed using GraphPad Prism 6.01.
(§4) Primary cortical neurons from transgenic mice expressing human full-length tau were prepared and maintained as described previously (Beaudoin, Lee et al. 2012). Briefly, cortical neurons were isolated from embryos at embryonic day 16-18 using Accutase solution (Sigma). Dissociated neurons were plated at a density of […] in 96-well plates containing high glucose Dulbecco's Modified Eagle Medium (DMEM, Corning) supplemented with 2% B27 (Gibco), 10,000 units/mL penicillin, 10,000 μg/mL streptomycin , and 25 μg/mL Amphotericin B (Gibco). After 2 hours, plating medium was removed from cells and replaced with Neurobasal medium (Gibco) plus 2% B27, […] (Hyclone), 10,000 units/mL, 10,000 μg/mL streptomycin, and 25 μg/mL Amphotericin B supplement. Cells were grown for 10-12 days in vitro before experiments and 50% of media changes were performed every 3 days. […] The MTT viability assay was performed as previously described (Cell Toxicity Assay—MTT).

primary cortical neurons [3] = assay: MTT viability of primary cortical neurons exposed to Aβ oligomers pre-incubated with compound; format: cell-based, Htau mice; settings: 0.5 μM Aβ oligomers, 5 μM curcumin derivatives
Procedure: Aβ oligomers (AβO) were prepared as previously described (Lasagna-Reeves, Castillo-Carranza et al. 2010) by dissolving 0.3 mg of Aβ pellet in 200 μL of hexafluoroisopropanol (HFIP) and incubating for 10-20 min at room temperature. The resulting solution was added to 700 μL of ddH2O in a siliconized Eppendorf tube with holes placed on top of the cap to allow the slow evaporation of HFIP. The samples were then stirred at 500 rpm using a Teflon-coated micro stir bar for 48 hours at room temperature in the fume hood.
as §2, with “Aβ” for “Tau”
as §3, §4

[4] = cited from earlier work
[5] = in vivo; cited from earlier work
primary cortical neurons [6] = assay: MTT viability of primary cortical neurons exposed to PSP BDTOs with and without compound; format: cell-based, Htau mice; settings: 0.5 μM BDTOs, CL3 final concentration 5 μM
Procedure: as §3
as §2, with “conditions.” for “conditions as previously described (Lo Cascio and Kayed 2018).”
(§5) Primary cortical neurons from transgenic mice expressing human full-length tau were prepared and maintained as described previously (Beaudoin, Lee et al. 2012). […]

primary cortical neurons [7] = assay: MTT viability of primary cortical neurons exposed to AD BDTOs with and without compound; format: cell-based, Htau mice; settings: 0.5 μM BDTOs, CL3 final concentration 5 μM
Procedure: as §3
as §2, with “conditions.” for “conditions as previously described (Lo Cascio and Kayed 2018).”
as §5

PSP BDTOs = assay: Atomic force microscopy of PSP BDTOs with and without compound; settings: with CL3
Procedure: as §1, with “(Lasagna-Reeves, Castillo-Carranza et al. 2010).” for “(Lasagna-Reeves, (2010)0.”, “absence or” for “absence and”
as §2, with “conditions.” for “conditions as previously described (Lo Cascio and Kayed 2018).”
(§6) Immunoprecipitated tau oligomers were characterized using various biochemical methods as previously described (Lasagna-Reeves 2012, Gerson, Castillo-Carranza et al. 2016). AFM was performed to visualize the morphologies of oligomeric assemblies of isolated proteins. Isolated oligomers (5 μL) were injected into an LC-6AD Shimadzu HPLC system fitted with a TSK-GEL G3000 SWXL (30 cm×7.8 mm) column, Supelco-808541 to determine the size of the isolated oligomers. PBS (pH 7.4) was used as the mobile phase with a flow rate of 0.5 mL/min. […]

AD BDTOs = assay: Atomic force microscopy of AD BDTOs with and without compound; settings: with CL3
Procedure: as §1, with “(Lasagna-Reeves, Castillo-Carranza et al. 2010).” for “(Lasagna-Reeves, (2010)0.”, “absence or” for “absence and”
as §2, with “conditions.” for “conditions as previously described (Lo Cascio and Kayed 2018).”
as §6

primary cortical neurons [8] = assay: BDTOs with and without CL3 taken up by primary cortical neurons, Western blot of cytoplasmic fraction; format: cell-based; settings: 0.5 μM DLB, AD and PSP BDTOs, 5 μM CL3, 24 hrs
Procedure: FIG. 15. Disease-relevant brain-derived tau oligomers with and without CL3 taken up by primary cortical neurons. Primary cortical neurons were exposed to 0.5 μM DLB, AD and PSP BDTOs in the presence and absence of 5 μM CL3 for 24 hrs. Tau levels are evaluated in the cytoplasmic fraction using the generic tau antibody, Total Tau. […] PSP show to more efficiently decrease monomeric tau in the cytoplasmic fraction as compared to DLB and AD. […] Data were compared by one-way analysis of variance (ANOVA) followed by Dunnett's multiple comparison test: Ctrl vs DLB, DLB+CL3, AD, AD+CL3, PSP, PSP+CL3: **p<0.01; ***p<0.001; ****p<0.0001. Bars and error bars represent the mean and standard deviation.

T1 sequence (P10636 1-441 isoform P10636-8): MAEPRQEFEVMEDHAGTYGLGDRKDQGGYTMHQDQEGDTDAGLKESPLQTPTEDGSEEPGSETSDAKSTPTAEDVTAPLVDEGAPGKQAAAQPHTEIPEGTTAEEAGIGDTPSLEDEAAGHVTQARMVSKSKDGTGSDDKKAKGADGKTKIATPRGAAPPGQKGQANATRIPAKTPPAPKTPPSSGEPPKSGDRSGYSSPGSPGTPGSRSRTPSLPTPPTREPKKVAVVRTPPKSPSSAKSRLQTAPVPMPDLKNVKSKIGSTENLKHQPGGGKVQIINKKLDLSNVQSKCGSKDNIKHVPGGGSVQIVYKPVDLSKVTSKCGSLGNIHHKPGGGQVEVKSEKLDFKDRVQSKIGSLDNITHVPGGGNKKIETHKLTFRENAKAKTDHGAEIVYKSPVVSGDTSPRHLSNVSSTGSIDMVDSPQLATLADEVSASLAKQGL

SMILES | morphology and aggregation state of TauO by AFM [1] | viability of neuronal culture exposed to TauO pre-incubated with compound (primary cortical neurons [2]) | viability of neuronal culture exposed to AβO pre-incubated with compound (primary cortical neurons [3]) | solubility in aqueous media [4] | bioavailability [5] | PSP BDTOs-induced toxicity in primary neurons (cell viability) (primary cortical neurons [6]) | AD BDTOs-induced toxicity in primary neurons (cell viability) (primary cortical neurons [7]) | morphology and aggregation state of PSP BDTOs by AFM (PSP BDTOs) | morphology and aggregation state of AD BDTOs by AFM (AD BDTOs) | effect of BDTO pretreatment on tau levels in cytoplasmic fraction of primary neurons (primary cortical neurons [8])
COc1cc(/C=C/C(=O)OCC(=O)/C=C/c2ccc(OC)c(OC)c2)ccc1F [Cal9] | converting TauO into much larger aggregates | significantly higher cells viability as compared to TauO alone | no changes in cells viability as compared to AβO alone |  |  |  |  |  |  | 
CC(=O)/C=C/c1ccc(C)cc1 [HemiC9] | converting TauO into much larger aggregates | significantly higher cells viability as compared to TauO alone | no changes in cells viability as compared to AβO alone |  |  |  |  |  |  | 
O=C(/C=C/c1ccc(Cl)cc1)COC(=O)/C=C/c1ccc(Cl)cc1 [Cal7] | converting TauO into much larger aggregates | significantly higher cells viability as compared to TauO alone | no changes in cells viability as compared to AβO alone |  |  |  |  |  |  | 
COc1cc(/C=C/C(=O)COC(=O)/C=C/c2ccc(O)c(OC)c2)ccc1O [Calebin-A] |  |  |  | poor solubity in water | low bioavailabity |  |  |  |  | 
O=C(/C=C/c1ccc(F)cc1)C(=O)/C=C/c1ccc(F)cc1 [CL3] | converting TauO into much larger aggregates | significantly higher cells viability as compared to TauO alone | no changes in cells viability as compared to AβO alone |  |  | reduced PSP-derived tau oligomers toxicity; also recorded: able to rescue primary neurons from PSP BDTOs-induced toxicity; also recorded: modulates PSP BDTOs associated neurotoxicity | not be able to modulate and neutralize AD BDTOs-induced toxicity; also recorded: no effect in preventing AD BDTOs-induced toxicity | formation of larger tau aggregates | no morphological changes were observed | differently modulate their aggregation states
